Results: patent US20170290774A1, “NEUROKININ-1 RECEPTOR ANTAGONIST COMPOSITION FOR TREATMENT OF DISEASES AND CONDITIONS OF THE RESPIRATORY TRACT” (PLUS VITECH, S.L., priority 2014, published 2017)

Tested on: VEGF
Experiment: Immunohistochemistry of VEGF in respiratory tract tissue of sodium hypochlorite aerosol-treated rabbits
Type: in vivo, New Zealand albino rabbits
Text: It is known that the factors TGF-α, TGF-β 1, TGF-β 2, TGF-β 3, SPARC, MMP-3; MMP-7, MMP-9, MMP-11, MMP-13 and MMP-14, TGF-β, NF-kB, EGF, MMP-9, VEGF and TNF-α which are produced by lung cells (pneumocytes, fibroblasts and vascular endothelial cells) and inflammatory cells (macrophages, lymphocytes and polymorphonuclear leukocytes) are involved in the pathophysiology and development of said respiratory tract diseases. […] Herein, 27 New Zealand albino rabbits (New Zealand White Rabbit) with an initial average weight about 3 kg were used in this example. All subjects were administered an aerosol of a solution consisting of a mixture of water and sodium hypochlorite (35 g sodium hypochlorite per liter of water) at a rate of 5 mL of said solution by inhalation three times a day for 7 days (days 1 to 7 of experimentation). Subsequently, from days 3 to 7, a group of 3 rabbits (Group 1) was administered an oral dose of 10 mg/kg body weight per day, another group of 3 rabbits (Group 2) was administered an oral dose of 40 mg/kg body weight per day, a third group (Group 3) was administered an oral dose of 80 mg/kg body weight per day and a fourth group (Group 4) was administered an oral dose of 100 mg/kg body weight per day. […] This mixture was administered as an aerosol by inhalation, also from days 3 to 7, to a group of 3 rabbits (group 5) at a dose of 0.05 mg/kg body weight per day, to another group of three rabbits (Group 6) at a dose of 0.1 mg/kg body weight per day, to another group of three rabbits (Group 7) at a dose of 0.2 mg/kg body weight per day and to another group of three rabbits (Group 8) at a dose of 0.4 mg/kg body weight per day. A placebo consisting only of olive oil was administered from days 3 to 7 to a control group of 3 rabbits (placebo group). In parallel, 3 rabbits were kept under identical conditions but were not administered any treatment nor the aforementioned sodium hypochlorite solution (control group). […] On day 7 of the experiment all animals were euthanized and necropsied. […] Samples were taken at the peripheral level of the lung parenchyma, just below the pleural surface. Tissue samples were also taken from the nasal cavity, pharynx, larynx and bronchi. Immunohistochemistry studies were performed for all samples to evaluate the levels of the markers TGF-α, TGF-β 1, TGF-β 2, TGF-β 3 SPARC, MMP-3; MMP-7, MMP-9, MMP-11, MMP-14, TGF-β, TNF-α and VEGF. In said immunohistochemistry studies, a sample of each sample was dehydrated by treatment with increasing concentrations of ethanol and finally xylene. Subsequently said dried samples were embedded in paraffin, thus creating a block. Said paraffin blocks were cut on a microtome to a thickness of 5 μm, and the resulting sections (slices) were placed on slides suitable for conducting immunohistochemistry techniques. Subsequently, the sections were deparaffinised by immersion in xylene and then rehydrated through immersion in a series of solutions containing decreasing concentrations of ethanol and, finally, water. […] The samples were then allowed to cool to room temperature over 10 minutes. Endogenous peroxidase activity was blocked by treatment with 3% hydrogen peroxide over 30 min at room temperature. […] In order to verify the expression of NK1 receptors, the cell samples were incubated in the presence of anti-NK1 antibodies ([…], Sigma-Aldrich) diluted 1:1000 at 4° C. overnight. After this time they were washed in 0.05M Tris buffer at room temperature. Subsequently, Envision System-HRP (Dako) reagents were added for 30 min at room temperature. Once this time had expired, the samples were again washed with 0.05 M Tris buffer, and immunoreactivity was visualized by light microscopy with a chromogenic solution with 3,3'-diaminobenzidine (DAB+; Dako, USA). In order to differentiate the cell nuclei, these were lightly stained with haematoxylin. Samples that were not incubated with the primary antibody, but wherein this was replaced by a non-immune serum were used as negative controls. […]

In the case of C[C@@H](OC1OCCN(Cc2nc(=O)[nH][nH]2)C1c1ccc(F)cc1)c1cc(C(F)(F)F)cc(C(F)(F)F)c1 (stereo in doubt) [Aprepitant, 5-([(2R,3S)-2-((R)-1-[3,5-bis(trifluoromethyl)phenyl]ethoxy)-3-(4-fluorophenyl)morpholino]methyl)-1H-1,2,4-triazol-3(2H)-one], the “Percent increase in VEGF with respect to the control group” value (shortened to “Percent increase in VEGF”) (bronchial tissue, Group 1, oral 10 mg/kg per day) is reported as 457.34%, the “Percent increase in VEGF” value (bronchial tissue, Group 2, oral 40 mg/kg per day) is reported as 356.45% and the “Percent increase in VEGF” value (bronchial tissue, Group 3, oral 80 mg/kg per day) is reported as 256.34%. The “Percent increase in VEGF” value (bronchial tissue, Group 4, oral 100 mg/kg per day) was 203.56%, the “% Med G5/C: percent increase in marker VEGF with respect to the control group” value (bronchial tissue, Group 5) was 324.53% and the “% Med G6/C: percent increase in marker VEGF with respect to the control group” value (bronchial tissue, Group 6) was 235.71%. The “% Med G7/C: percent increase in marker VEGF with respect to the control group” value (bronchial tissue, Group 7) was 153.57%, the “% Med G8/C: percent increase in marker VEGF with respect to the control group” value (bronchial tissue, Group 8) was 112.71% and the “Percent increase in VEGF” value (laryngeal tissue, Group 1, oral 10 mg/kg per day) was 1,134.34%. For the same molecule, the “Percent increase in VEGF” value (laryngeal tissue, Group 2, oral 40 mg/kg per day) was 980.54%, the “Percent increase in VEGF” value (laryngeal tissue, Group 3, oral 80 mg/kg per day) was 875.80% and the “Percent increase in VEGF” value (laryngeal tissue, Group 4, oral 100 mg/kg per day) was 667.82%. For the same molecule, the “Percent increase in VEGF” value (laryngeal tissue, Group 5, inhalation 0.05 mg/kg per day) was 950.34%, the “Percent increase in VEGF” value (laryngeal tissue, Group 6, inhalation 0.1 mg/kg per day) was 670.32% and the “Percent increase in VEGF” value (laryngeal tissue, Group 7, inhalation 0.2 mg/kg per day) was 570.12%. For the same molecule, the “Percent increase in VEGF” value (laryngeal tissue, Group 8, inhalation 0.4 mg/kg per day) was 250.21%, the “Percent increase in VEGF” value (lung tissue, Group 1, oral 10 mg/kg per day) was 655.77% and the “Percent increase in VEGF” value (lung tissue, Group 2, oral 40 mg/kg per day) was 512.28%. For the same molecule, the “Percent increase in VEGF” value (lung tissue, Group 3, oral 80 mg/kg per day) was 458.30%, the “Percent increase in VEGF” value (lung tissue, Group 4, oral 100 mg/kg per day) was 342.93% and the “Percent increase in VEGF” value (lung tissue, Group 5, inhalation 0.05 mg/kg per day) was 575.62%. The “Percent increase in VEGF” value (lung tissue, Group 6, inhalation 0.1 mg/kg per day) was 391.91%, the “Percent increase in VEGF” value (lung tissue, Group 7, inhalation 0.2 mg/kg per day) was 200.18% and the “Percent increase in VEGF” value (lung tissue, Group 8, inhalation 0.4 mg/kg per day) was 145.64%. For the same molecule, the “Percent increase in VEGF” value (nasal cavity tissue, Group 1, oral 10 mg/kg per day) was 1,293.11%, the “Percent increase in VEGF” value (nasal cavity tissue, Group 2, oral 40 mg/kg per day) was 969.58% and the “Percent increase in VEGF” value (nasal cavity tissue, Group 3, oral 80 mg/kg per day) was 716.62%. For the same molecule, the “Percent increase in VEGF” value (nasal cavity tissue, Group 4, oral 100 mg/kg per day) was 576.80%, the “Percent increase in VEGF” value (nasal cavity tissue, Group 5, inhalation 0.05 mg/kg per day) was 1,727.98% and the “Percent increase in VEGF” value (nasal cavity tissue, Group 6, inhalation 0.1 mg/kg per day) was 1,010.56%. The “Percent increase in VEGF” value (nasal cavity tissue, Group 7, inhalation 0.2 mg/kg per day) was 323.15%, the “Percent increase in VEGF” value (nasal cavity tissue, Group 8, inhalation 0.4 mg/kg per day) was 145.68% and the “Percent increase in VEGF” value (pharyngeal tissue, Group 1, oral 10 mg/kg per day) was 1,789.12%. For the same molecule, the “Percent increase in VEGF” value (pharyngeal tissue, Group 2, oral 40 mg/kg per day) was 1,256.67%, the “Percent increase in VEGF” value (pharyngeal tissue, Group 3, oral 80 mg/kg per day) was 998.56% and the “Percent increase in VEGF” value (pharyngeal tissue, Group 4, oral 100 mg/kg per day) was 567.45%. For the same molecule, the “Percent increase in VEGF” value (pharyngeal tissue, Group 5, inhalation 0.05 mg/kg per day) was 1,858.37%, the “Percent increase in VEGF” value (pharyngeal tissue, Group 6, inhalation 0.1 mg/kg per day) was 1,198.56% and the “Percent increase in VEGF” value (pharyngeal tissue, Group 7, inhalation 0.2 mg/kg per day) was 654.32%. The “Percent increase in VEGF” value (pharyngeal tissue, Group 8, inhalation 0.4 mg/kg per day) was 121.34%.
